Test results reported in patent US8263651B2, “Use of cis-epoxyeicosatrienoic acids and inhibitors of soluble epoxide hydrolase to treat conditions mediated by PBR, CB2, and NK2 receptors” (The Regents of the University of California, priority 2006, dated 2012).
pIC50: −log10 of the molar value. Entries after “also recorded” stand apart in the source; their conditions may differ. Read-outs that look alike come from different tables or passages of the source.

Columns and labels:
Cannabinoid CB2 = molecular target: T1, Cannabinoid CB2 (Homo sapiens, UniProt P34972); test: radio-ligand binding competition, CB2 ([3H]WIN 55212-2); conditions: for % Inhibition of Control Specific Binding: individual EET isomers, 3 μM
T1 construct: host or cells: CHO cells

BZD (peripheral) = molecular target: T2, BZD (peripheral) (Rattus norvegicus, UniProt P16257); test: radio-ligand binding competition, peripheral benzodiazepine receptor ([3H]PK 11195); conditions: for inhibition of binding of [3H]PK 11195 (FIG. 1): increasing concentrations; for % Inhibition of Control Specific Binding: second round, individual EET isomers, 3 μM; for pIC50: displacement of [3H]PK 11195
T2 construct: containing 0.2 mg of cardiac membrane protein and the radioactive ligand; tissue CEREP (contract assay); host or cells: rat heart ventricular membranes

Dopamine D3 = Dopamine D3 (Homo sapiens, UniProt P35462); test: radio-ligand binding competition, D3; conditions: for % Inhibition of Control Specific Binding: second round, individual EET isomers, 3 μM; for pIC50: displacement of high affinity ligand
Neurokinin NK2 = molecular target: T3, Neurokinin NK2 (Homo sapiens, UniProt P21452); test: radio-ligand binding competition, NK2; conditions: for % Inhibition of Control Specific Binding: second round, individual EET isomers, 3 μM; for pIC50: displacement of high affinity ligand
T3 sequence (P21452 1-398): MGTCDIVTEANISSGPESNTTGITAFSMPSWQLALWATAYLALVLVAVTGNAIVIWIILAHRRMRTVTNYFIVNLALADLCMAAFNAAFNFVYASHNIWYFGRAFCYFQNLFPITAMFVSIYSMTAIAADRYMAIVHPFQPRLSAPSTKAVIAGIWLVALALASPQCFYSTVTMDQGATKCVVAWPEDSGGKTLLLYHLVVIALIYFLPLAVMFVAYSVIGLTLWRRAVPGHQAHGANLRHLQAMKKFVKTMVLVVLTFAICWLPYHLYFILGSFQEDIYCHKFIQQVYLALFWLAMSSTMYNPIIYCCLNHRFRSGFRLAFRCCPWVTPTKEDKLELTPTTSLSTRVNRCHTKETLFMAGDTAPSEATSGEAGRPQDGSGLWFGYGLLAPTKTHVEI

[1] = system: LPS-elicited thermal hyperalgesia; test: LPS-elicited inflammatory pain model, hindpaw thermal withdrawal latency; type: in vivo, rat; conditions: for effect on the antihyperalgesic action of sEHI AEPU: topical, with LPS + AEPU (FIGS. 2A, 2B, 4); for effect on response to LPS administration: agent + LPS, no sEHI (FIG. 2D); for effect on baseline TWL response: agent by itself, no LPS (FIG. 2C); for effect on sEHI-elicited analgesia: with LPS + sEHI compound 950, two hours post LPS (FIG. 5)
Description: Inflammatory pain model: The nociception response was measured using the hind paw withdrawal latency test modified after Hargreaves at al., Pain, 32(1):77-88 (1988). Male Sprague-Dowley rats weighing 240-260 g, are individually housed at UC Davis Animal Resource Facility under standard conditions with free access to food and water, and maintained for at least 1 week before the experiments. On the day of the experiments, the animals' basal response is measured and then compounds are topically administered preceding an injection with 10 ug of endotoxin (1Lipopolysaccharide, “LPS”, Sigma-Aldrich, St. Louis, Mo.). Nociceptive response is then measured at 120 minutes post-LPS injection. Compounds are formulated by dissolving them in ethanol and mixing with cream in a ratio of 1:8. Eight animals per group are used. A dose response curve is obtained by administering increasing concentrations of EETs and measuring nociceptive response.
Behavioral nociceptive testing was conducted by assessing thermal hindpaw withdrawal latencies (“TWL”) using a commercial Hargreaves (Hargreaves et al., A new and sensitive method for measuring thermal nociception in cutaneous hyperalgesia. Pain 32:77-88 (1988)) apparatus (IITC Life Science Inc., Woodland Hills, Calif.). Male Sprague-Dawley rats weighing 240-250 g, were individually housed at the UC Davis Animal Resource Facility under standard conditions with free access to food and water, and maintained for at least 1 week before the experiments. On the day of the experiment, the rats were transferred to a quiet room, acclimated for 1 h, and their baseline responses measured. In pilot experiments, the intensity of the thermal stimulus was set to produce a baseline TWL of 7-8 s. Following baseline measurements, rats were first treated with 200 μl of vehicle or compound-formulated cream by topical application to one hind paw. Compounds (including sEHI, steroid synthesis inhibitors, steroid receptor antagonists, and cannabinoid receptor antagonists, as shown in the Figure legends) were formulated by dissolving them in ethanol and mixing with Vanicream® (Pharmaceutical Specialties, Inc., Rochester, Minn.) in a ratio of 1:9. The cream was thoroughly massaged across the entire hind paw surface over a 2 min period. After 1.5 hours rats were treated with 200 μl of sEHI formulated cream. Within 10 min of sEHI application, lipopolysaccharide (“LPS”, 10 μg in 50 μl 0.9% NaCl) was injected subcutaneously into the plantar surface of the treated paw. Immediately following LPS injection, animals were placed in acrylic chambers on a glass platform maintained at a temperature of 30±1° C. for TWL-measurement. During TWL measurement, a beam of radiant heat was focused onto the mid-portion of the plantar surface of the treated hind paw until the rat moved its stimulated hindpaw abruptly away from the heat stimulus. The duration of heat application necessary to elicit a withdrawal was designated as TWL. A maximum stimulus duration of 22 s was imposed to prevent tissue damage. Five TWL measurements were taken at 3-4 min interstimulus intervals for each of the time points following treatment. The three median TWLs were averaged for each animal at each time point.

[2] = system: CAR induced local thermal hyperalgesia; test: carrageenan-induced thermal hyperalgesia model; type: in vivo; conditions: topical, 20 hours post 2% carrageenan
Description: Using a second distinct inflammatory model, hyperalgesia was induced by intraplantar injection of 2% carrageenan (CAR) and sEH inhibitors were again delivered topically 20 hours post CAR injection.

[3] = metabolomic analysis of oxylipids and prostaglandins in LPS-treated animals; type: in vivo
From the text: (In FIG. 3A, the bar presenting the results for the metabolite 6-keto-PGF1a for one group of animals exceeded the scale, as shown by a break in the bar and the statement of the result in ng/mL about the bar). FIG. 3A. […] FIG. 3C. […] All three graphs: bars with lines rising from left to right (e.g., in FIG. 3A, the “sum of DHETs”) present results for untreated (naïve) animals, bars with lines falling from left to right present results for animals treated with LPS, bars with cross-hatching present results for the animals treated with LPS and the sEH inhibitor AEPU, and bars with horizontal lines present the results for animals treated with LPS, AEPU, and the steroid synthesis inhibitor aminogluthetimide (“AGL”). The metabolites chosen for study show the effect on different pathways by which arachidonic acid is metabolized. ΣEpOMEs and ΣDiHOMEs are indicators of the P450 pathway, HETEs are an indicator of how much arachidonic acid is going through the 5-lipoxygenase pathway and 6-keto-PGF1a, and PGE2 are indicators of the arachidonic acid metabolized by the cyclooxygenase pathway. 6-keto-PGF1a and TXB2 are stable metabolites of PGI2 and thromboxane A2 which have been implicated in increased risk for stroke and heart attack. HODEs are lipoxygenase-derived fatty acid metabolites.
See, FIG. 3. This means that inhibition of sEH is not only effective against inflammatory pain but also effective in other types of pain that are not necessarily modulated by prostanoid levels. Indeed, non-inflammatory types of pain are known to be not well addressed by COX inhibitors. The levels of EETs and DHETs, however, correlated well with the nociceptive end result.

CB2 over CB1 = conditions: cited from earlier work
[4] = AGL+AEPU vs AEPU-administered animals
[5] = displacement of high affinity ligand, read-out: IC50, CB2

Chain of Dopamine D3 (P35462 whole entry): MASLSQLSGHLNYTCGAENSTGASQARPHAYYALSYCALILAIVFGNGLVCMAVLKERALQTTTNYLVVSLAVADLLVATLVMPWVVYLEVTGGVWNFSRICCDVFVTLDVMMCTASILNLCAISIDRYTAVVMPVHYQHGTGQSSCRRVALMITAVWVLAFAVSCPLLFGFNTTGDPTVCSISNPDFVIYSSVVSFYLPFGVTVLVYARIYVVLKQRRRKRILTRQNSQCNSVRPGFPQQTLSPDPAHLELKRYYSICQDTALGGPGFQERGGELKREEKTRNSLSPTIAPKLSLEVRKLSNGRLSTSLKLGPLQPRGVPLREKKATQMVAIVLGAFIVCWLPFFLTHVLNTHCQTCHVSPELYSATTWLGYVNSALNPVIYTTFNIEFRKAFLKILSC
T1 sequence (P34972 whole entry): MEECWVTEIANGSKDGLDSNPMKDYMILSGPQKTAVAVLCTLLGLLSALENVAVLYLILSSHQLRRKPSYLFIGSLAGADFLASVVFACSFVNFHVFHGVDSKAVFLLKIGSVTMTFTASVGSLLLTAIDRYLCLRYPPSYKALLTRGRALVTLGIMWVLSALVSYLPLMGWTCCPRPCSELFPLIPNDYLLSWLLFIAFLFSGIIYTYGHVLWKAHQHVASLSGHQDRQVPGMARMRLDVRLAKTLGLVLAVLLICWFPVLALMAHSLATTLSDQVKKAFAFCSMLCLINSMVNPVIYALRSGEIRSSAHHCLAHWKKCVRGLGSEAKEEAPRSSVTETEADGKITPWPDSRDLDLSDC

Cc1c(C(=O)c2cccc3ccccc23)c2cccc3c2n1C(CN1CCOCC1)CC3=O (stereo not shown) [WIN55212-2, 4,5-dihydro-2-methyl-4(4-morpholinylmethyl)-1-(1-naphthalenylcarbonyl)-6H-pyrrolo[3,2,1ij]quinolin-6-one, reference compound]
pIC50 (Cannabinoid CB2; reference compound, first round, read-out: IC50 Ref (affinity of reference compound)): 8.12
pIC50 (Cannabinoid CB2; reference compound, second round, read-out: IC50 Ref): 8.57

CCCCC/C=C\C/C=C\C/C=C\CC1OC1CCCC(=O)O (stereo not shown) [5,6-EET]
inhibition of binding of [3H]PK 11195 (FIG. 1) (BZD (peripheral)): completely inhibit
% Inhibition of Control Specific Binding (BZD (peripheral)): 27%
% Inhibition of Control Specific Binding (Cannabinoid CB2; second round): 25%
% Inhibition of Control Specific Binding (Dopamine D3): 18%
% Inhibition of Control Specific Binding (Neurokinin NK2): 25%

CC/C(=C(\c1ccccc1)c1ccc(OCCN(C)C)cc1)c1ccccc1 [tamoxifen]
effect on the antihyperalgesic action of sEHI AEPU [1]: did not have any impact

CCCCOC(=O)CCCCCCCCCCCNC(=O)NC12CC3CC(CC(C3)C1)C2 [AUDA-be, 12-(3-Adamantan-1-yl-ureido)dodecanoic acid butyl ester]
attenuation of LPS-elicited thermal hyperalgesia ([1]; topical administration): prophylactic effect
effect on CAR induced thermal hyperalgesia [2]: blocked CAR induced local thermal hyperalgesia effectively; also recorded: effective therapeutically in reversing thermal hyperalgesia

CC1(C)NC(=O)N(c2ccc([N+](=O)[O-])c(C(F)(F)F)c2)C1=O [nilutamide]
effect on the antihyperalgesic action of sEHI AEPU [1]: did not have any impact

CCC1(c2ccc(N)cc2)CCC(=O)NC1=O (stereo not shown) [AGL]
effect on response to LPS administration [1]: do not they modify
effect on baseline TWL response [1]: no impact
effect on the antihyperalgesic action of sEHI AEPU [1]: completely blocked; also recorded: clearly hyperalgesic
levels of DHETs [3, 4]: increased
levels of EETs [3, 4]: significantly reduced
PGE2 levels ([3]; AGL+LPS+AEPU vs AEPU+LPS or LPS only (FIG. 3)): significantly lower

CCCCC/C=C\C/C=C\CC1OC1C/C=C\CCCC(=O)O (stereo not shown) [8,9-EET]
% Inhibition of Control Specific Binding (BZD (peripheral)): 11%
% Inhibition of Control Specific Binding (Cannabinoid CB2; second round): −2%
% Inhibition of Control Specific Binding (Dopamine D3): 9%
% Inhibition of Control Specific Binding (Neurokinin NK2): 10%

CCCCCC1OC1C/C=C\C/C=C\C/C=C\CCCC(=O)O (stereo not shown) [14,15-EET]
inhibition of binding of [3H]PK 11195 (FIG. 1) (BZD (peripheral)): completely inhibit
% Inhibition of Control Specific Binding (BZD (peripheral)): 45%
% Inhibition of Control Specific Binding (Cannabinoid CB2; second round): 5%
% Inhibition of Control Specific Binding (Dopamine D3): 10%
% Inhibition of Control Specific Binding (Neurokinin NK2): 8%

CCCCCC1OC1C/C=C\C/C=C\C/C=C\CCCC(=O)OC (stereo not shown) [14,15 EET-me]
pIC50 (BZD (peripheral)): 4.92
pIC50 (Cannabinoid CB2; [5]): < 4.00
pIC50 (Dopamine D3): < 4.00
pIC50 (Neurokinin NK2): < 4.00

CC#C[C@]1(O)CC[C@H]2[C@@H]3CCC4=CC(=O)CCC4=C3[C@@H](c3ccc(N(C)C)cc3)C[C@@]21C [mifepristone]
effect on the antihyperalgesic action of sEHI AEPU [1]: did not have any impact

CCCCC/C=C\C/C=C\CC1OC1C/C=C\CCCC(=O)OC (stereo not shown) [8,9 EET-me]
pIC50 (BZD (peripheral)): < 4.00
pIC50 (Cannabinoid CB2; [5]): < 4.00
pIC50 (Dopamine D3): < 4.00
pIC50 (Neurokinin NK2): < 4.00

CCCCC/C=C\CC1OC1C/C=C\C/C=C\CCCC(=O)OC (stereo not shown) [11,12 EET-me]
pIC50 (BZD (peripheral)): 3.85
pIC50 (Cannabinoid CB2; [5]): < 4.00
pIC50 (Dopamine D3): < 4.00
pIC50 (Neurokinin NK2): < 4.00

CCCCC/C=C\C[C@H]1O[C@H]1C/C=C\C/C=C\CCCC(=O)O [11,12-EET]
inhibition of binding of [3H]PK 11195 (FIG. 1) (BZD (peripheral)): completely inhibit
% Inhibition of Control Specific Binding (BZD (peripheral)): 28%
% Inhibition of Control Specific Binding (Cannabinoid CB2; second round): 3%
% Inhibition of Control Specific Binding (Dopamine D3): 6%
% Inhibition of Control Specific Binding (Neurokinin NK2): 1%

CC(=O)S[C@@H]1CC2=CC(=O)CC[C@]2(C)[C@H]2CC[C@@]3(C)[C@@H](CC[C@@]34CCC(=O)O4)[C@H]12 [spironoloactone]
effect on the antihyperalgesic action of sEHI AEPU [1]: did not have any impact

COc1ccc(C(=O)c2c(C)n(CCN3CCOCC3)c3cc(I)ccc23)cc1 [AM630, iodopravadoline]
effect on sEHI-elicited analgesia [1]: completely blocked

CCCCC/C=C\C/C=C\C/C=C\CC1OC1CCCC(=O)OC (stereo not shown) [5,6 EET-me]
pIC50 (BZD (peripheral)): 4.92
pIC50 (Cannabinoid CB2; [5]): 4.70
pIC50 (Dopamine D3): < 4.00
pIC50 (Neurokinin NK2): 4.44

Cc1c(C(=O)NN2CCCCC2)nn(-c2ccc(Cl)cc2Cl)c1-c1ccc(I)cc1 [AM251, N-(piperidin-1-yl)-5-(4-iodophenyl)-1-(2,4-dichlorophenyl)-4-methy 1-1H-pyrazole-3-carboxamide]
effect on sEHI-elicited analgesia [1]: did not block

CN1CCCCC1Cn1cc(C(=O)c2cc([N+](=O)[O-])ccc2I)c2ccccc21 (stereo not shown) [AM1241]
selectivity for CB2 over CB1 (CB2 over CB1): 340 fold

CC(C)(C)NC(=O)[C@H]1CC[C@H]2[C@@H]3CC[C@H]4NC(=O)C=C[C@]4(C)[C@H]3CC[C@]12C [Finasteride]
effect on response to LPS administration [1]: do not they modify
effect on baseline TWL response [1]: no impact
effect on the antihyperalgesic action of sEHI AEPU [1]: blocked
